Measured values taken from PubChem BioAssay AID1195 (EPA DSSTox, 2008).

System: human maximum recommended daily dose, FDA database
Experiment: DSSTox (FDAMDD) FDA Maximum (Recommended) Daily Dose Database
Conditions: hits give low values
In short: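 MRDD values come from clinical trials with daily oral dosing, usually for 3–12 months, for the average adult, in mg/day converted to mg/kg-bw/day assuming 60 kg. Antineoplastic mg/m2 doses are divided by 37. Activity score maps log10(1/MRDD mmol) onto 1–100.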

[1] = TherapeuticCategory: glucocorticoid
[2] = TherapeuticCategory: anticholinergic
[3] = TherapeuticCategory: antihyperlipoproteinemic
[4] = TherapeuticCategory: narcotic analgesic
[5] = TherapeuticCategory: diagnostic aid
[6] = TherapeuticCategory: antipsychotic

SMILES: C[C@@H]1C[C@H]2[C@@H]3C[C@H](F)C4=CC(=O)C=C[C@]4(C)[C@H]3[C@@H](O)C[C@]2(C)[C@@]1(O)C(=O)CO
- maximum recommended daily dose (mmol/kg-bw/day) [1]: 0.00102

SMILES: CC(=O)OCC(=O)[C@@]1(O)CC[C@H]2[C@@H]3C[C@H](C)C4=CC(=O)C=C[C@]4(C)[C@H]3[C@@H](O)C[C@@]21C
- maximum recommended daily dose (mmol/kg-bw/day) [1]: 0.01

SMILES: C[N+]1(C)CCCC(OC(=O)C(O)(c2ccccc2)c2ccccc2)C1 (stereo unspecified)
- maximum recommended daily dose (mmol/kg-bw/day) [2]: 0.00792

SMILES: CC[C@H](C)C(=O)O[C@H]1C[C@H](O)C=C2C=C[C@H](C)[C@H](CC[C@@H](O)C[C@@H](O)CC(=O)O)[C@H]21
- maximum recommended daily dose (mmol/kg-bw/day) [3]: 0.00157

SMILES: CC(C)c1ccc2oc3nc(N)c(C(=O)O)cc3c(=O)c2c1
- maximum recommended daily dose (mmol/kg-bw/day) (TherapeuticCategory: antiallergic, antiasthmatic): 0.00838

SMILES: Cc1cc(O)c2ccccc2c1O
- maximum recommended daily dose (mmol/kg-bw/day) (TherapeuticCategory: prothrombogenic vitamin): 0.000959

SMILES: Cn1cc[nH]c1=S
- maximum recommended daily dose (mmol/kg-bw/day) (TherapeuticCategory: antihyperthyroid): 0.00876

SMILES: OCC1COC(CCI)O1 (stereo unspecified)
- maximum recommended daily dose (mmol/kg-bw/day) (TherapeuticCategory: expectorant): 0.0155

SMILES: CCOC(=O)C1(c2ccccc2)CCN(CCc2ccc(N)cc2)CC1
- maximum recommended daily dose (mmol/kg-bw/day) [4]: 0.00945

SMILES: O=C1CN=C(c2ccccc2)c2cc(Cl)ccc2N1CC1CC1
- maximum recommended daily dose (mmol/kg-bw/day) (TherapeuticCategory: anxiolytic): 0.00308

SMILES: COc1ccccc1OCC1CNC(=O)O1 (stereo unspecified)
- maximum recommended daily dose (mmol/kg-bw/day) (TherapeuticCategory: anxiolytic, skeletal muscle relaxant): 0.0896

SMILES: NCC(CC(=O)O)c1ccc(Cl)cc1 (stereo unspecified)
- maximum recommended daily dose (mmol/kg-bw/day) (TherapeuticCategory: skeletal muscle relaxant): 0.00622

SMILES: N[C@@H]1CONC1=O
- maximum recommended daily dose (mmol/kg-bw/day) (TherapeuticCategory: antibacterial): 0.164

SMILES: CC[N+](CC)(CCNC(=O)C(=O)NCC[N+](CC)(CC)Cc1ccccc1Cl)Cc1ccccc1Cl
- maximum recommended daily dose (mmol/kg-bw/day) (TherapeuticCategory: cholinesterase inhibitor): 0.00274

SMILES: Nc1ccc(N=Nc2ccccc2)c(N)n1
- maximum recommended daily dose (mmol/kg-bw/day) (TherapeuticCategory: analgesic): 0.0313

SMILES: CCCOC(=O)Cn1cc(I)c(=O)c(I)c1
- maximum recommended daily dose (mmol/kg-bw/day) [5]: 0.224

SMILES: CC(C)=CCOc1ccc(/C=C/C(=O)c2ccc(OCC=C(C)C)cc2OCC(=O)O)cc1
- maximum recommended daily dose (mmol/kg-bw/day) (TherapeuticCategory: antiulcerative): 0.0111

SMILES: C[C@@H]1C[C@H]2[C@@H]3CCC4=CC(=O)C=C[C@]4(C)[C@@]3(Cl)[C@@H](O)C[C@]2(C)[C@@]1(OC(=O)c1ccco1)C(=O)CCl
- maximum recommended daily dose (mmol/kg-bw/day) (TherapeuticCategory: topical anti inflammatory): 2.88e-05

SMILES: CNC[C@H](O)c1cccc(O)c1
- maximum recommended daily dose (mmol/kg-bw/day) (TherapeuticCategory: mydriatic, decongestant): 0.00498

SMILES: CCc1c(C)[nH]c2c1C(=O)C(CN1CCOCC1)CC2 (stereo unspecified)
- maximum recommended daily dose (mmol/kg-bw/day) [6]: 0.0136

SMILES: COCC(=O)Nc1c(I)c(C(=O)NCC(O)CO)c(I)c(C(=O)N(C)CC(O)CO)c1I (stereo unspecified)
- maximum recommended daily dose (mmol/kg-bw/day) [5]: 0.126

SMILES: C[C@]12C=CC(=O)C=C1CC[C@@H]1[C@@H]2CC[C@]2(C)OC(=O)CC[C@@H]12
- maximum recommended daily dose (mmol/kg-bw/day) (TherapeuticCategory: antineoplastic): 0.0139

SMILES: CC1(C)C(\C=C/C=C\C=C/C=C2/N(CCCCS(=O)(=O)O)c3ccc4ccccc4c3C2(C)C)=[N+](CCCCS(=O)(=O)[O-])c2ccc3ccccc3c21
- maximum recommended daily dose (mmol/kg-bw/day) [5]: 0.000645

SMILES: C[C@H]1CC[C@@H]2N(C1)C[C@@H]1[C@H]([C@@H](O)[C@H](O)[C@]3(O)[C@H]1C[C@@]14O[C@@]5(O)[C@@H]([C@@H](O)[C@@H](O)[C@@H]31)[C@]4(C)CC[C@@H]5O)[C@]2(C)O
- maximum recommended daily dose (mmol/kg-bw/day) (TherapeuticCategory: none): 4.76e-05

SMILES: O=C(Oc1ccccc1C(=O)O)c1ccccc1O
- maximum recommended daily dose (mmol/kg-bw/day) (TherapeuticCategory: analgesic, anti inflammatory): 0.258

SMILES: NC[C@H](O)c1ccc(O)c(O)c1
- maximum recommended daily dose (mmol/kg-bw/day) (TherapeuticCategory: adrenergic, antihypotensive): 0.000394

SMILES: CCN(CC)C(=O)c1ccc(O)c(OC)c1
- maximum recommended daily dose (mmol/kg-bw/day) (TherapeuticCategory: central and respiratory stimulant): 0.0187

SMILES: Cn1c(=O)c2[nH]cnc2n(C)c1=O
- maximum recommended daily dose (mmol/kg-bw/day) (TherapeuticCategory: bronchodilator): 0.0481

SMILES: CC(=O)c1ccc2c(c1)N(CCCN1CCC(CCO)CC1)c1ccccc1S2
- maximum recommended daily dose (mmol/kg-bw/day) [6]: 0.0065

SMILES: Cc1cc2cc3c(C)cc(=O)oc3c(C)c2o1
- maximum recommended daily dose (mmol/kg-bw/day) (TherapeuticCategory: pigmentation agent): 0.000732

SMILES: CC/C=C(\C)C1(CC)C(=O)NC(=O)NC1=O
- maximum recommended daily dose (mmol/kg-bw/day) (TherapeuticCategory: sedative, hypnotic): 0.0148

SMILES: CCOC(=O)C1(c2ccccc2)CCCN(C)CC1 (stereo unspecified)
- maximum recommended daily dose (mmol/kg-bw/day) (TherapeuticCategory: analgesic): 0.0383

SMILES: CCCN(CCC)C(=O)C(CCC(=O)O)NC(=O)c1ccccc1 (stereo unspecified)
- maximum recommended daily dose (mmol/kg-bw/day) [2]: 0.0798

SMILES: Cc1cccc(C)c1NC(=O)c1cc(S(N)(=O)=O)c(Cl)cc1O
- maximum recommended daily dose (mmol/kg-bw/day) (TherapeuticCategory: diuretic, antihypertensive): 0.00188

SMILES: CN1CC[C@]23c4c5ccc(O)c4O[C@H]2C(=O)CC[C@@]3(O)[C@H]1C5
- maximum recommended daily dose (mmol/kg-bw/day) [4]: 0.000498

SMILES: O=C(OCC(COC(=O)c1cccnc1)(COC(=O)c1cccnc1)COC(=O)c1cccnc1)c1cccnc1
- maximum recommended daily dose (mmol/kg-bw/day) [3]: 0.00719
